Where a name gives a salt, the structure may show the parent alone.
melting point	Structure (SMILES)
169 to 171 °C	O=C(O)c1cccc(C(=O)NCc2ccc(F)c(-c3cccc(CO)c3)c2)c1
119 to 123 °C	CCc1nc2c(cnn2CC)c(NC2CCOCC2)c1CNC(=O)c1cccc(C(=O)NCc2ccc(F)c(-c3cccc(CN4C[C@@H]5C[C@H]4CN5C(=O)OC(C)(C)C)c3)c2)c1
207 to 209 °C	CCc1nc2c(cnn2CC)c(NC2CCOCC2)c1CNC(=O)c1cccc(C(=O)O)c1
109 to 112 °C	CCc1nc2c(cnn2CC)c(NC2CCOCC2)c1CNC(=O)c1cc(C)cc(C(=O)NCc2cccc(-c3cccc(C=O)c3)c2)c1
107 to 110 °C	CCc1nc2c(cnn2CC)c(NC2CCOCC2)c1CNC(=O)c1cc(C)cc(C(=O)NCc2ccc(F)c(-c3cccc(C=O)c3)c2)c1
212 to 214 °C	CCc1nc2c(cnn2CC)c(NC2CCOCC2)c1CNC(=O)c1cc(C)cc(C(=O)NCc2ccc(Cl)c(Br)c2)c1
153 to 156 °C	CCc1nc2c(cnn2CC)c(NC2CCOCC2)c1CNC(=O)c1cc(C)cc(C(=O)NCc2ccc(Cl)c(-c3cccc(C=O)c3)c2)c1
117 to 119 °C	CCc1nc2c(cnn2CC)c(NC2CCOCC2)c1CNC(=O)c1cc(C)cc(C(=O)NCc2ccc(OC)c(-c3cccc(C=O)c3)c2)c1
117 to 119 °C	CCc1nc2c(cnn2CC)c(NC2CCOCC2)c1CNC(=O)c1cc(C)cc(C(=O)NCc2ccc(C)c(Br)c2)c1
117 to 120 °C	CCc1nc2c(cnn2CC)c(NC2CCOCC2)c1CNC(=O)c1cc(C)cc(C(=O)NCc2ccc(C)c(-c3cccc(C=O)c3)c2)c1
100 to 113 °C	CCc1nc2c(cnn2CC)c(NC2CCOCC2)c1CNC(=O)c1cccc(C(=O)NCc2ccc(F)c(-c3cccc(CN4CCN[C@@H](C)C4)c3)c2)c1 (as salt: TFA) [Example 205, N-{[1,6-Diethyl-4-(tetrahydro-2H-pyran-4-ylamino)-1H-pyrazolo[3,4-b]pyridin-5-yl]methyl}-N′-[(6-fluoro-3′-{[(3S)-3-methyl-1-piperazinyl]methyl}-3-biphenylyl)methyl]-1,3-benzenedicarboxamide]
135 to 138 °C	CCc1nc2c(cnn2CC)c(NC2CCOCC2)c1CNC(=O)c1cccc(C(=O)NCc2ccc(C)c(-c3cccc(CN4CCNCC4)c3)c2)c1 [Example 192, N-{[1,6-Diethyl-4-(tetrahydro-2H-pyran-4-ylamino)-1H-pyrazolo[3,4-b]pyridin-5-yl]methyl}-N′-{[6-methyl-3′-(1-piperazinylmethyl)-3-biphenylyl]methyl}-1,3-benzenedicarboxamide]
121 to 124 °C	CCc1nc2c(cnn2CC)c(NC2CCOCC2)c1CNC(=O)c1cccc(C(=O)NCc2ccc(C)c(-c3cccc(CN4CCN(C)CC4)c3)c2)c1 [Example 193, N-{[1,6-Diethyl-4-(tetrahydro-2H-pyran-4-ylamino)-1H-pyrazolo[3,4-b]pyridin-5-yl]methyl}-N′-({6-methyl-3′-[(4-methyl-1-piperazinyl)methyl]-3-biphenylyl}methyl)-1,3-benzenedicarboxamide]
129 to 131 °C	CCc1nc2c(cnn2CC)c(NC2CCOCC2)c1CNC(=O)c1cccc(C(=O)NCc2ccc(OC)c(-c3cccc(CN4C[C@@H]5C[C@H]4CN5)c3)c2)c1 [Example 194, N-{[3′-[(1S,4S)-2,5-Diazabicyclo [2.2.1]hept-2-ylmethyl]-6-(methyloxy)-3-biphenylyl]methyl}-N′-{[1,6-diethyl-4-(tetrahydro-2H-pyran-4-ylamino)-1H-pyrazolo[3,4-b]pyridin-5-yl]methyl}-1,3-benzenedicarboxamide]
143 to 147 °C	CCc1nc2c(cnn2CC)c(NC2CCOCC2)c1CNC(=O)c1cccc(C(=O)NCc2ccc(OC)c(-c3cccc(CN4CCCNCC4)c3)c2)c1 [Example 195, N-{[1,6-Diethyl-4-(tetrahydro-2H-pyran-4-ylamino)-1H-pyrazolo[3,4-b]pyridin-5-yl]methyl}-N′-{[3′-(hexahydro-1H-1,4-diazepin-1-ylmethyl)-6-(methyloxy)-3-biphenylyl]methyl}-1,3-benzenedicarboxamide]
118 to 120 °C	CCc1nc2c(cnn2CC)c(NC2CCOCC2)c1CNC(=O)c1cccc(C(=O)NCc2ccc(C)c(-c3cccc(CN4CCCNCC4)c3)c2)c1 [Example 196, N-{[1,6-Diethyl-4-(tetrahydro-2H-pyran-4-ylamino)-1H-pyrazolo[3,4-b]pyridin-5-yl]methyl}-N′-{[3′-(hexahydro-1H-1,4-diazepin-1-ylmethyl)-6-methyl-3-biphenylyl]methyl}-1,3-benzenedicarboxamide]
138 to 140 °C	CCc1nc2c(cnn2CC)c(NC2CCOCC2)c1CNC(=O)c1cccc(C(=O)NCc2ccc(C)c(-c3cccc(CN4C[C@@H]5C[C@H]4CN5)c3)c2)c1 [Example 197, N-({3′-[(1S,4S)-2,5-Diazabicyclo [2.2.1]hept-2-ylmethyl]-6-methyl-3-biphenylyl}methyl)-N′-{[1,6-diethyl-4-(tetrahydro-2H-pyran-4-ylamino)-1H-pyrazolo[3,4-b]pyridin-5-yl]methyl}-1,3-benzenedicarboxamide]
187 to 190 °C (dec.)	CCc1nc2c(cnn2CC)c(NC2CCOCC2)c1CNC(=O)c1cccc(C(=O)NCc2ccc(F)c(-c3cccc(CN4C[C@H](C)NC[C@H]4C)c3)c2)c1 [Example 198, N-{[1,6-Diethyl-4-(tetrahydro-2H-pyran-4-ylamino)-1H-pyrazolo[3,4-b]pyridin-5-yl]methyl}-N′-[(3′-{[(2R,5S)-2,5-dimethyl-1-piperazinyl]methyl}-6-fluoro-3-biphenylyl)methyl]-1,3-benzenedicarboxamide]
128 to 131 °C	CCc1nc2c(cnn2CC)c(NC2CCOCC2)c1CNC(=O)c1cccc(C(=O)NCc2ccc(F)c(-c3cccc(CN4CCCCC4)c3)c2)c1 [Example 199, N-{[1,6-Diethyl-4-(tetrahydro-2H-pyran-4-ylamino)-1H-pyrazolo[3,4-b]pyridin-5-yl]methyl}-N′-{[6-fluoro-3′-(1-piperidinylmethyl)-3-biphenylyl]methyl}-1,3-benzenedicarboxamide]
169 to 173 °C	CCc1nc2c(cnn2CC)c(NC2CCOCC2)c1CNC(=O)c1cccc(C(=O)NCc2ccc(F)c(-c3cccc(CN4CCN(C)CC4)c3)c2)c1 [Example 200, N-{[1,6-Diethyl-4-(tetrahydro-2H-pyran-4-ylamino)-1H-pyrazolo[3,4-b]pyridin-5-yl]methyl}-AN-({6-fluoro-3′-[(4-methyl-1-piperazinyl)methyl]-3-biphenylyl}methyl)-1,3-benzenedicarboxamide]
147 to 150 °C	CCc1nc2c(cnn2CC)c(NC2CCOCC2)c1CNC(=O)c1cccc(C(=O)NCc2ccc(F)c(-c3cccc(CN4CCNC(=O)C4)c3)c2)c1 [Example 201, N-{[1,6-Diethyl-4-(tetrahydro-2H-pyran-4-ylamino)-1H-pyrazolo[3,4-b]pyridin-5-yl]methyl}-N′-({6-fluoro-3′-[(3-oxo-1-piperazinyl)methyl]-3-biphenylyl}methyl)-1,3-benzenedicarboxamide]
155 to 158 °C	CCc1nc2c(cnn2CC)c(NC2CCOCC2)c1CNC(=O)c1cccc(C(=O)NCc2ccc(F)c(-c3cccc(CN4CCN(CC)CC4)c3)c2)c1 [Example 202, N-{[1,6-Diethyl-4-(tetrahydro-2H-pyran-4-ylamino)-1H-pyrazolo[3,4-b]pyridin-5-yl]methyl}-N′-({3′-[(4-ethyl-1-piperazinyl)methyl]-6-fluoro-3-biphenylyl}methyl)-1,3-benzenedicarboxamide]
165 to 169 °C	CCc1nc2c(cnn2CC)c(NC2CCOCC2)c1CNC(=O)c1cccc(C(=O)NCc2ccc(F)c(-c3cccc(CN4CCN(C(C)C)CC4)c3)c2)c1 [Example 203, N-{[1,6-Diethyl-4-(tetrahydro-2H-pyran-4-ylamino)-1H-pyrazolo[3,4-b]pyridin-5-yl]methyl}-N′-[(6-fluoro-3′-{[4-(1-methylethyl)-1-piperazinyl]methyl}-3-biphenylyl)methyl]-1,3-benzenedicarboxamide]
145 to 148 °C	CCc1nc2c(cnn2CC)c(NC2CCOCC2)c1CNC(=O)c1cccc(C(=O)NCc2ccc(F)c(-c3cccc(CN4CCCNCC4)c3)c2)c1 [Example 204, N-{[1,6-Diethyl-4-(tetrahydro-2H-pyran-4-ylamino)-1H-pyrazolo[3,4-b]pyridin-5-yl]methyl}-N′-{[6-fluoro-3′-(hexahydro-1H-1,4-diazepin-1-ylmethyl)-3-biphenylyl]methyl}-1,3-benzenedicarboxamide]
126 to 129 °C	CCc1nc2c(cnn2CC)c(NC2CCOCC2)c1CNC(=O)c1cccc(C(=O)NCc2ccc(F)c(-c3cccc(CN(C)CCN(C)C)c3)c2)c1 [Example 206, N-{[1,6-Diethyl-4-(tetrahydro-2H-pyran-4-ylamino)-1H-pyrazolo[3,4-b]pyridin-5-yl]methyl}-N′-[(3′-{[[2-(dimethylamino)-ethyl](methyl)amino]methyl}-6-fluoro-3-biphenylyl)methyl]-1,3-benzenedicarboxamide]
129 to 133 °C	CCc1nc2c(cnn2CC)c(NC2CCOCC2)c1CNC(=O)c1cccc(C(=O)NCc2ccc(F)c(-c3cccc(CN4C[C@@H]5C[C@H]4CN5)c3)c2)c1 [Example 207, N-({3′-[(1S,4S)-2,5-Diazabicyclo [2.2.1]hept-2-ylmethyl]-6-fluoro-3-biphenylyl}methyl)-N′-{[1,6-diethyl-4-(tetrahydro-2H-pyran-4-ylamino)-1H-pyrazolo[3,4-b]pyridin-5-yl]methyl}-1,3-benzenedicarboxamide]
138 to 140 °C	CCc1nc2c(cnn2CC)c(NC2CCOCC2)c1CNC(=O)c1cccc(C(=O)NCc2ccc(OC)c(-c3cccc(CN4CCNCC4)c3)c2)c1 [Example 209, N-{[1,6-Diethyl-4-(tetrahydro-2H-pyran-4-ylamino)-1H-pyrazolo[3,4-b]pyridin-5-yl]methyl}-N′-{[6-(methyloxy)-3′-(1-piperazinylmethyl)-3-biphenylyl]methyl}-1,3-benzenedicarboxamide]

Source: patent US8067408B2, “Dual pharmacophores—PDE4-muscarinic antagonistics” (priority 2008, dated 2011)
